Test results reported in US12213975B2, “PDE9 inhibitors for treating sickle cell disease” (Cardurion Pharmaceuticals, Inc., priority 2018, dated 2025).

Columns and labels:
Townes mouse model = test: Plasma sE-Selectin in Townes mouse model of SCD; format: in vivo; conditions: Townes mice treated with Compound 1
Excerpt: Recently several drugs targeting white cell binding to endothelial cells, have been advancing in clinical studies in patients. Compound 1 is able to increase expression of fetal hemoglobin in patient derived cells and murine models of SCD and reduce vessel occlusion in SCD murine models. In this Example, the ability of Compound 1 to reduce the adhesive properties of neutrophils from SCD patients and reduce sE-Selectin (sE-Sel) and markers of PMN activation in murine SCD models was studied.
Endothelial E-selectin (E-Sel) slows leukocyte rolling, which is followed by stationary adhesion and transmigration of activated leukocytes. Plasma levels of sE-Sel, produced by the enzymatic cleavage of the extracellular domains of E-Sel, are increased in SCD patients and this may be mediated by its interaction with leukocytes. In the Townes mouse model, plasma sE-Sel is increased 144% ([…]) over levels seen in control mice ([…]).

SCD models = test: Circulating levels of PMNs in SCD models; format: in vivo
[1] = tested on: SCD patient neutrophils adhering to activated endothelial cells HMEC-1; test: In vitro adhesion assay mimicking blood flow: SS patient neutrophils on activated HMEC-1 lined microchannels; format: cell-based, human
Excerpt: This appears to be accompanied by a Compound 1-mediated reduction in disease specific cell activation including 67% lower levels of myeloid derived myeloperoxidase (MPO) and 26% lower levels of neutrophil derived arginase in the lung (FIG. 1). […] This was quantified by real time monitoring of the green florescent patches in the mircochannel, as neutrophils are labeled by a specific Alexa Fluor® 488-conjugated antibody before the perfusion step. […] Under these conditions, adhesion was reduced an average of 54% (p=0.03) (FIG. 2). Mechanistically, not willing to be bound by any theory, Compound 1 may target the stationary adhesion step of neutrophils as it lowered expression levels of key neutrophil integrins including CD11a [reduced 23% (p=0.002)], CD11b [reduced 39% (ns)) and CD18 [reduced 47% (p=0.03)) (FIG. 3).

patient = test: Adverse event profile when taken with food; format: in vivo; conditions: once a day with food
Description: In some embodiments, Compound 1 or a pharmaceutically acceptable salt or polymorph thereof is administered to a patient, wherein Compound 1 or a pharmaceutically acceptable salt or polymorph thereof is administered once a day with food. […] The incidence and severity of the side effects, such as nausea, emesis and headache, can be reduced when Compound 1 or a pharmaceutically acceptable salt or polymorph thereof, is taken with food.

C[C@@H]1CN(Cc2ncccn2)C[C@H]1c1cn2c(C3CCOCC3)ncc2c(=O)[nH]1 [Compound 1, 6-[(3S,4S)-4-methyl-1-(pyrimidin-2-ylmethyl)pyrrolidin-3-yl]-3-tetrahydropyran-4-yl-7H-imidazo[1,5-a]pyrazin-8-one]
plasma sE-Sel (Townes mouse model; untreated Townes 139, control mice 57): 92 ng/mL
plasma sE-Sel levels elevated over control mice (Townes mouse model; untreated Townes increased 144%): 61%
circulating levels of PMNs (SCD models): reduced circulating levels of PMNs
incubation time at which inhibitory effect was initiated [1]: 15 min
reduction of neutrophil adhesion (average) ([1]; 30 min incubation with 30 μM, p=0.03, FIG. 2): 54%
effect on neutrophil adhesion to activated HMEC-1 ([1]; added to blood samples prior to the perfusion step): reduced adhesions significantly and in a dose dependent manner
effect of food on adverse event profile (nausea, emesis, headache) (patient): food can dramatically reduce the adverse event profile
